Test results as given in patent US5656669A, “Restorative neuropharmacological agent for motor and speech disturbance” (Sumitomo Pharmaceuticals Co., Ltd., priority 1994, dated 1997).
“Also recorded” adds a separate entry of the source. Read-outs that look alike come from different tables or passages of the source.

Experiments:
physchem = format: physicochemical; details: titration method
Description: (§1) L-threo-DOPS, whose molecular formula is C9 H11 NO5, is white or light brown crystals or crystalline powder with no taste or odor. […] It is difficult to measure a clear melting point or decomposition point for L-threo-DOPS. […] DL-threo-DOPS, which contains 50% L-threo-DOPS, can also be used in this invention. Hereafter, L-threo-DOPS and DL-threo-DOPS are generically denoted as "threo-DOPS".

solubility = format: physicochemical
Description: as §1

[1] = Short term clinical testing, motor disturbance: FMS (Fugl-Meyer score); format: in vivo, clinical subjects; details: for Improvement in FMS: individual case
Description: (§2) Clinical testing was conducted to evaluate the effects of the restorative neuropharmacological agent for motor and speech disturbance according to this invention.
(§3) Clinical subjects for motor disturbance were 2 cases after cerebral aneurysm operations (subarachnoid hemorrhage), 9 cases of brain hemorrhage and 10 cases of brain infarction with chronic apoplectic paralysis, i.e. a total of 21 cases (12 males and 9 females, age 43-83 with an average 61.9±2.5 years). For these clinical subjects, the average time elapsed from the onset had occurred was 100 days.
(§4) First, the clinical subjects received physical therapy without administration of droxidopa (L-DOPS), and then they were evaluated with FMS (Fugl-Meyer score), 10-meter walking and the Barthel index. The clinical subjects then received administration of 300 mg droxidopa (L-DOPS) per day for 2 days in addition to the physical therapy, and were evaluated with FMS. 10-meter walking and with the Barthel index.

[2] = Short term clinical testing, motor disturbance: 10-meter walking; format: in vivo, clinical subjects; details: of the 21 cases; 300 mg per day for 2 days
Description: as §2, §3, §4

[3] = Short term clinical testing, motor disturbance: Barthel index (ADL); format: in vivo, clinical subjects; details: of the 19 cases improved in 10-meter walking; 300 mg per day for 2 days
Description: as §2, §3, §4

[4] = Repeated 2-day administration after 1-2 weeks and halt of administration, motor functions; format: in vivo, clinical subjects
Description: The administration of droxidopa to the clinical subjects was then halted, but the level of the improvement effect on motor functions was maintained.

[5] = Long term administration testing: Barthel index (ADL); format: in vivo, clinical subjects; details: for Improvement in ADL: individual case
Description: Based on the above results, […] term administration testing was conducted.

[6] = Clinical testing, speech disturbance (Broca aphasia after stroke): standard aphasia testing (SLAT); format: in vivo, clinical subjects; details: after 2 weeks
Description: (§5) The clinical subjects for speech disturbance were 10 cases of Broca aphasia after stroke (3 males and 7 females, age 51-65 with an average of 58.6±1.6 years).
(§6) First, without administration of droxidopa, the clinical subjects were evaluated with standard aphasia testing (SLAT). […] For 8 of the clinical subjects, 100 mg of droxidopa was administered once a day for a subsequent 2 weeks and evaluation was conducted using SLAT.

[7] = Side-effects in clinical subjects with speech disturbance; format: in vivo; details: clinical subjects with Broca aphasia
Description: as §5, §6

SD rats [8] = details: oral, 12 months, cited from earlier work
SD rats [9] = details: cited from earlier work
SD rats [10] = details: cited from earlier work; for perinatal and lactation period findings: oral
[11] = tested on: guinea pigs (Hartley strain, male); details: cited from earlier work
cultured cells = details: cited from earlier work
mice = details: cited from earlier work
Rats, SD strain = details: cited from earlier work
beagle dogs [12] = details: cited from earlier work; for LD50: oral
rhesus monkeys [13] = details: cited from earlier work; for LD50: oral
SD rats [14] = details: 3 months, cited from earlier work
beagle dogs [15] = details: oral 200, 600, 2,000 mg/kg/day, 3 months; cited from earlier work
rhesus monkeys [16] = details: oral 300, 1,000, 3,000 mg/kg/day, 3 months; cited from earlier work
SD rats [17] = details: oral 60, 200, 600 mg/kg/day, male and female; cited from earlier work
microorganisms = details: cited from earlier work
[18] = of the 21 cases, 300 mg per day for 2 days

N[C@@H](C(=O)O)[C@H](O)c1ccc(O)c(O)c1 [L-threo-DOPS, (-)-(2R, 3R)-2-amino-3-hydroxy-3-(3,4-dihydroxyphenyl) propionic acid]
pKa (physchem): 7.88 | solubility in ethanol (solubility; ethanol): dissolves very little | solubility in ether (solubility; ether): dissolves very little | solubility in glacial acetic acid (solubility; glacial acetic acid): dissolves very little | solubility in water (solubility; water): dissolves only slightly | FMS increase ([1]; 300 mg per day for 2 days plus physical therapy, higher than control cases): 2.5±0.5 | Improvement in FMS ([1]; brain hemorrhage (BH), 300 mg per day for 2 days plus physical therapy, listed as L-DOPS): Improved; also recorded: No change | Improvement in FMS ([1]; brain infarction (BI), 300 mg per day for 2 days plus physical therapy, listed as L-DOPS): Improved; also recorded: No change | Improvement in FMS ([1]; subarachnoid hemorrhage (SAH), 300 mg per day for 2 days plus physical therapy): Improved | cases with improved balance (FMS) [1, 18]: 3 cases | cases with improvement in lower limb motor function (FMS) [1, 18]: 6 cases | cases with improvement in upper limb motor function (FMS) [1, 18]: 10 cases | cases with improved FMS ([1]; of the 21 cases, 300 mg per day for 2 days plus physical therapy): 15 cases | cases with improvement in the 10-meter walking [2]: 19 cases | cases with improvement in the Barthel index (ADL) [3]: one | cases with further improvement on repeated administration ([4]; 5 cases re-dosed for 2 consecutive days after 1-2 weeks): 3 cases | level of the improvement effect on motor functions after administration was halted ([4]; after halting administration): maintained | dependence of results on time elapsed since onset of the illness ([5]; 200-500 mg/day for 2 weeks to 2 months): independent of the time elapsed since onset of the illness | Improvement in ADL ([5]; 200 mg per day × 2W, listed as L-DOPS): Improved; also recorded: No change | Improvement in ADL ([5]; 200 mg per day × 4W): No change | Improvement in ADL ([5]; 200 mg per day × 8W): Improved | Improvement in ADL ([5]; 300 mg per day × 3W): Improved | Improvement in ADL ([5]; 300 mg per day × 6W): Improved | Improvement in ADL ([5]; 300 mg per day × 7W): No change | Improvement in ADL ([5]; 500 mg per day × 6W): Improved | cases with improvement in the Barthel index (ADL) ([5]; of the 10 cases, 200-500 mg/day for 2 weeks to 2 months): 7 cases | cases with improvement in "hearing" (SLAT) [6]: one | cases with improvement in "reading" (SLAT) [6]: 3 cases | cases with improvement in "repeating" (SLAT) [6]: 2 cases | cases with improvement in "speaking" (SLAT) [6]: 7 cases | cases with improvement in "writing" (SLAT) [6]: 6 cases | average improvement rate, SLAT "hearing", imperatives ([6]; 100 mg once a day): 16% | average improvement rate, SLAT "hearing", short sentences ([6]; 100 mg once a day): 33% | average improvement rate, SLAT "reading", Chinese character words ([6]; 100 mg once a day): 10% | average improvement rate, SLAT "reading", short sentences ([6]; 100 mg once a day): 20% | average improvement rate, SLAT "repeating" ([6]; 100 mg once a day): 10% | average improvement rate, SLAT "speaking", actions ([6]; 100 mg once a day): 13% | average improvement rate, SLAT "speaking", names ([6]; 100 mg once a day): 27% | average improvement rate, SLAT "writing", Japanese syllabary words ([6]; 100 mg once a day): 20% | cases with improved SLAT results ([6]; of the 10 cases): 8 cases | side-effects [7]: No serious side-effect was observed | chronic toxicity findings (SD rats [8]; 30 mg/kg/day and higher): suppression of weight increases, an increase in thymus weight, necrosis of kidney uriniferous tubuli, degeneration of kidney glomeruli, etc. were observed | chronic toxicity findings (SD rats [8]; 100 mg/kg/day and higher): drooling, myocarditis and calcification of cardiac muscles, etc. were observed | other influence, organ forming period (SD rats [9]; oral 60, 200, 600 mg/kg/day): No other influence was observed | findings in fetuses (SD rats [9]; oral, 200 mg/kg or higher, restorable after birth): lower body weights of fetuses and an increase in the occurrence of undulating ribs were observed | other influence, perinatal and lactation period (SD rats [10]; oral 60, 200, 600 mg/kg/day): No other influence was observed | perinatal and lactation period findings (SD rats [10]; 60 mg/kg or higher): suppression of neonatal development after birth was observed | perinatal and lactation period findings (SD rats [10]; 600 mg/kg): shortening of the pregnancy period was observed | Endodermoreaction [11]: negative | PCA reaction [11]: negative | intra-gel sedimentation reaction [11]: negative | systemic anaphylaxis reaction [11]: negative | mutagenicity, chromosome abnormality testing (cultured cells): no mutagenicity was observed | mutagenicity, micronucleus testing (mice): no mutagenicity was observed | LD50 (Rats, SD strain; hypodermic, female): 95 mg/kg | LD50 (Rats, SD strain; hypodermic, male): 84 mg/kg | LD50 (Rats, SD strain; intravenous, female): 19 mg/kg | LD50 (Rats, SD strain; intravenous, male): 16 to 19 mg/kg | LD50 (Rats, SD strain; oral, female): > 10000 mg/kg | LD50 (Rats, SD strain; oral, male): > 10000 mg/kg | general symptoms, acute toxicity (Rats, SD strain; rats): reduced voluntary motions, deep breathing and bradypnea were observed | general symptoms, acute toxicity (beagle dogs [12]; dogs): no abnormal symptom was observed | LD50 (beagle dogs [12]; female): > 5000 mg/kg | LD50 (beagle dogs [12]; male): > 5000 mg/kg | LD50 (rhesus monkeys [13]; female): > 5000 mg/kg | LD50 (rhesus monkeys [13]; male): > 5000 mg/kg | general symptoms, acute toxicity (rhesus monkeys [13]; rhesus monkeys): no abnormal symptom was observed | subacute toxicity findings (SD rats [14]; oral, 60 mg/kg/day and higher): suppressed voluntary motions, necrosis of kidney uriniferous tubuli, necrosis of cardiac muscles, etc. were observed | subacute toxicity findings (SD rats [14]; oral, 300 mg/kg/day and higher): Suppression of weight increases and such were observed | subacute toxicity findings (SD rats [14]; oral, 1,500 mg/kg/day): Drooling was observed | subacute toxicity findings (beagle dogs [15]): no abnormality was observed | subacute toxicity findings (rhesus monkeys [16]): no abnormality was observed | mating rate, conception rate, nidation number, embryo/neonate death, teratogenic actions or fetal development (SD rats [17]): no influence was observed | mutagenicity, back mutation testing (microorganisms): no mutagenicity was observed
